Data on one substance can be found in patent US8637684B2, “Tautomycetin and tautomycetin analog biosynthesis” (Wisconsin Alumni Research Foundation, priority 2010, dated 2014).

Experiment [1] has as its system GM-CSF induced ERK1/2 activation in macrophage progenitors. Nature of the experiment: GM-CSF induced ERK1/2 activation in macrophage progenitors, immunoblot. It is filed as cell-based. The note with it: 2 μM TTN for 2 hours, GM-CSF 50 ng/mL. How it is done:
Bone marrow low density mononuclear cells (LDMNCs) were transduced with MIEG3 (empty vector), MIEG3-WT SHP2, or MIEG3-SHP2/E76K, sorted based on enhanced green fluorescent protein (EGFP) expression, and cultured for 5 days in M-CSF 100 ng/mL to generate macrophage progenitors, as previously described (Chan et al., 2005). Cells were serum- and growth factor-deprived for 16 hours, treated with 2 μM TTN for 2 hours, and stimulated with GM-CSF 50 ng/mL followed by preparation of protein extracts. Extracts were evaluated by immunoblot using α-phospho-ERK1/2 for activated ERK levels and α-ERK1/2 for total ERK levels (Cell Signaling Technology, Beverly, Mass.).
For biochemical studies, macrophage progenitor cells expressing empty vector (MIEG3), wild-type SHP2, or SHP2/E76K were serum- and growth factor-deprived for […]. Cells were pre-treated with DMSO or 2 μM TTN for 2 hours, and then cultures either remained unstimulated or were stimulated with GM-CSF at 50 ng/mL for 60 minutes. […] They next examined the effect of TTN on GM-CSF-stimulated hyperproliferation of SHP2/E76K-expressing hematopoietic progenitors. […] To provide further evidence that SHP2 is a molecular target of TTN, the inventors determined the X-ray crystal structure of SHP2 in complex with TTN D-1, as crystallization attempts for the SHP2-TTN complex were unsuccessful. […]

The next experiment deals with T1, Lyp (Homo sapiens, UniProt Q9Y2R2).
T1 sequence (Q9Y2R2 1-807): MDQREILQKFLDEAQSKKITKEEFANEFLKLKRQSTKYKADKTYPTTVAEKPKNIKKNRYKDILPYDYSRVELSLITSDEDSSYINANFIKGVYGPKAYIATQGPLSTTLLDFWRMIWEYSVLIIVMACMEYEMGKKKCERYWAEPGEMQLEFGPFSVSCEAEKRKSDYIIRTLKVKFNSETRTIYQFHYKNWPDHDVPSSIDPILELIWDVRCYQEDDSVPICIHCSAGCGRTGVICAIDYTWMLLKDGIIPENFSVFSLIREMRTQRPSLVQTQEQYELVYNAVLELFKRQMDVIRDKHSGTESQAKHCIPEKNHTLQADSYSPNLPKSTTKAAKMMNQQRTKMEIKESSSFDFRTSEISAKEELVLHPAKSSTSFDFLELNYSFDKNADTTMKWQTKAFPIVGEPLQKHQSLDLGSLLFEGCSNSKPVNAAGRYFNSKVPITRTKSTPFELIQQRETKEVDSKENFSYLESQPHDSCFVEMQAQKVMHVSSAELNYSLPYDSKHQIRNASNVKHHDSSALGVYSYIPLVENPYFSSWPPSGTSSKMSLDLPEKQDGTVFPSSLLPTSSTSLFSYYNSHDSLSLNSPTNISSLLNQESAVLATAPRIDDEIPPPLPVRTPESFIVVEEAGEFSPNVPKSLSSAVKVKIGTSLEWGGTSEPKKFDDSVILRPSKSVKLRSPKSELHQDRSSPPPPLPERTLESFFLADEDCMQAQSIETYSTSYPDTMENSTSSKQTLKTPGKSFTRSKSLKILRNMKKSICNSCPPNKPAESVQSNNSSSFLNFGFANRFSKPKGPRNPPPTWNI
Nature of the experiment: PTP activity assay with pNPP as substrate: Lyp. The experiment is classed as biochemical. As to conditions: pNPP as substrate at Km, pH 7.0, 25° C., I = 0.15 M.

The next experiment concerns the target T2, PTP1B (Homo sapiens, UniProt P18031).
T2 sequence (P18031 1-435): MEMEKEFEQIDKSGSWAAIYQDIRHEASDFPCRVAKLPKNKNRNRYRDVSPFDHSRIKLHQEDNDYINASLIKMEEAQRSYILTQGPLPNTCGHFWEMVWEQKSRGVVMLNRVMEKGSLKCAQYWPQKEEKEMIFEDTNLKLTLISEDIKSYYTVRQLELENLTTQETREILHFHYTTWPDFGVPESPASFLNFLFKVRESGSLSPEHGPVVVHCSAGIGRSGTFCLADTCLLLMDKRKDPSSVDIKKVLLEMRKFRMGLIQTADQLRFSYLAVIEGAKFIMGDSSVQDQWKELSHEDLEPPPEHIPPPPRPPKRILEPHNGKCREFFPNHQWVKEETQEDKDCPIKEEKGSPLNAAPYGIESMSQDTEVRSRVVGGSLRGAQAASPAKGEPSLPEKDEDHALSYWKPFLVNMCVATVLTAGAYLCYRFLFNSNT
The experiment in a line: PTP activity assay with pNPP as substrate: PTP1B. As to conditions: pNPP as substrate at Km, pH 7.0, 25° C., I = 0.15 M. The experiment is classed as biochemical.

Another experiment addresses T3, SHP2 (Homo sapiens, UniProt Q06124).
T3 construct: The expression and purification of the SHP2 catalytic domain (residues 262-528) were described previously; made in house
T3 sequence (Q06124 262-528): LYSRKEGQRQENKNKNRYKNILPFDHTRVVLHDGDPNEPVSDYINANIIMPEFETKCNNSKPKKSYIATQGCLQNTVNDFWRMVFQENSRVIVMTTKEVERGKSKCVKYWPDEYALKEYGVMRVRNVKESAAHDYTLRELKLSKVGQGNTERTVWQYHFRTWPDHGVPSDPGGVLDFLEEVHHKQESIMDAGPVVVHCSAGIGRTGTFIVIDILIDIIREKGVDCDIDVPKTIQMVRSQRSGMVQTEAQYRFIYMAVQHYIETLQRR
Nature of the experiment: PTP activity assay with pNPP as substrate: SHP2. It is filed as biochemical.

Description for Lyp: (§1) The PTP activity was assayed using pNPP as a substrate at 25° C. in 50 mM 3,3-dimethylglutarate buffer, pH 7.0, containing 1 mM EDTA with an ionic strength of 0.15 M adjusted by NaCl. TTM, TTN and the engineered analogs were analyzed for inhibition of a panel of PTPs at 10 μM compound concentration. For each enzyme screened, test compounds were diluted to 20 μM in 100 μL and combined with 50 μL pNPP at a concentration of 4×Km. The reaction was initiated by the addition of 50 μL of 4× concentrated enzyme and pNPP was allowed to convert to the product p-nitrophenol. The reaction was quenched by the addition of 50 μL of 5N NaOH. Nonenzymatic hydrolysis of pNPP was corrected by measuring the control without the addition of enzyme. Production of p-nitrophenol was monitored by a Spectra MAX385 microplate spectrophotometer (Molecular Devices) at 405 nm using a molar extinction coefficient of 18,000 M^−1 cm^−1. IC50 values were calculated by fitting the absorbance at 405 nm versus inhibitor concentration to the following equation: AI/A0=IC50/(IC50+[I]) where AI is the absorbance at 405 nm of the sample in the presence of inhibitor; Ao is the absorbance at 405 nm in the absence of inhibitor; and [I] is the concentration of the inhibitor.
Description for PTP1B: as §1
Description for SHP2: as §1
The effect of the compounds on PTP-catalyzed hydrolysis of p-nitrophenyl phosphate (pNPP) was assessed at pH 7 and 25° C. Members of the PTP superfamily that were included in the screen included the cytosolic PTPs, PTP1B, SHP1, SHP2, Lyp, HePTP, Meg2, and FAP1, the receptor-like PTPs, CD45, LAR, and PTPα, the dual specificity phosphatases VHR, VHX, and Cdc14, and the low molecular weight PTP.
Therefore, all of the IC50 values reported in this study directly reflect the true affinity of the compound for the enzymes tested.

tautomycetin [TTN]: in experiment [1], the “effect on ERK1/2 hyperactivation in SHP2/E76K-expressing cells” value is given as “effectively inhibited”. For the same substance, in experiment [1], the “effect on GM-CSF induced ERK1/2 activation in macrophage progenitors” value was “abrogated”. The IC50 stood at 20 µM against Lyp; 40 µM on PTP1B; 2.9 µM on SHP2 (pNPP as substrate at Km, pH 7.0, 25° C., I = 0.15 M). The “preference for SHP2 over all PTPs examined” value at SHP2 (from IC50 values) is listed as at least 5 fold.

Usually IC50 stands for the concentration needed to halve the response being measured. A high value points to lower potency.
